The results in this text go back to the OligoGym collection.

The target in this data set is UBE3A-ATS. The data set can be described thus: mouse, dose not given. Conditions: ASO.

HELM strings list units from the 5' end as sugar, base in round brackets, then linkage (d deoxyribose, r ribose, m 2'-O-methyl, p phosphodiester). Strings are as the collection lists them; they lack the last nucleoside at the 3' end of the tested compound. [moe] = 2'-O-(2-methoxyethyl) (MOE); [sp] = phosphorothioate linkage; [m5C] = 5-methylcytosine

“RNA1{[moe](A)[sp].[moe](T)p.[moe](G)p.[moe](G)p.[moe](G)p.d(A)[sp].d(G)[sp].d([m5C])[sp].d(T)[sp].d([m5C])[sp].d(T)[sp].d(G)[sp].d(G)[sp].d(A)[sp].d(A)[sp].[moe](A)p.[moe](A)p.[moe]([m5C])[sp].[moe](A)}$$$$ (last 3' nucleoside missing)”: the 3 h FOB score stood at 4 score 0-7. The result for “RNA1{[moe](A)[sp].[moe](T)p.[moe](G)p.[moe](T)p.[moe](A)p.d(T)[sp].d([m5C])[sp].d(A)[sp].d(G)[sp].d(G)[sp].d([m5C])[sp].d(A)[sp].d(A)[sp].d([m5C])[sp].d(A)[sp].[moe](G)p.[moe](A)p.[moe](A)[sp].[moe](T)}$$$$ (last 3' nucleoside missing)” reads 5 score 0-7; that for “RNA1{[moe](A)[sp].[moe](T)p.[moe](G)p.[moe](T)p.[moe](G)p.[moe]([m5C])p.d(A)[sp].d(T)[sp].d(A)[sp].d([m5C])[sp].d([m5C])[sp].d([m5C])[sp].d(A)[sp].d(G)[sp].d(G)[sp].d(G)[sp].[moe](T)p.[moe](A)[sp].[moe](G)}$$$$ (last 3' nucleoside missing)”, 3.5 score 0-7.

“RNA1{[moe](A)[sp].[moe](T)p.[moe](G)p.[moe](T)p.[moe](G)p.d(G)[sp].d(G)[sp].d([m5C])[sp].d([m5C])[sp].d(T)[sp].d([m5C])[sp].d(T)[sp].d(A)[sp].d(T)[sp].d(T)[sp].[moe](A)p.[moe](A)p.[moe](G)[sp].[moe](A)}$$$$ (last 3' nucleoside missing)” showed a 3 h FOB score of 0.7 score 0-7. Next, “RNA1{[moe](A)[sp].[moe](T)p.[moe](G)p.[moe](T)p.[moe](G)p.d([m5C])[sp].d(A)[sp].d(T)[sp].d(A)[sp].d([m5C])[sp].d([m5C])[sp].d([m5C])[sp].d(A)[sp].d(G)[sp].d(G)[sp].[moe](G)p.[moe](T)p.[moe](A)[sp].[moe](G)}$$$$ (last 3' nucleoside missing)”: 4 score 0-7. Next, “RNA1{[moe](A)[sp].[moe](T)p.[moe](G)p.[moe](T)p.d(G)[sp].d([m5C])[sp].d(A)[sp].d(T)[sp].d(A)[sp].d([m5C])[sp].d([m5C])[sp].d([m5C])[sp].d(A)[sp].d(G)[sp].[moe](G)p.[moe](G)p.[moe](T)p.[moe](A)[sp].[moe](G)}$$$$ (last 3' nucleoside missing)”: 1.8 score 0-7; “RNA1{[moe](A)[sp].[moe](T)p.[moe](T)p.[moe](G)p.[moe](A)p.d([m5C])[sp].d(A)[sp].d([m5C])[sp].d([m5C])[sp].d(T)[sp].d([m5C])[sp].d([m5C])[sp].d(A)[sp].d(A)[sp].d([m5C])[sp].[moe](T)p.[moe](G)p.[moe](T)[sp].[moe](A)}$$$$ (last 3' nucleoside missing)”: 0.7 score 0-7; “RNA1{[moe](A)[sp].[moe](T)p.[moe](T)p.[moe](G)p.[moe](G)p.[moe](T)p.d([m5C])[sp].d(A)[sp].d(T)[sp].d([m5C])[sp].d(T)[sp].d([m5C])[sp].d(G)[sp].d(G)[sp].d(G)[sp].d(T)[sp].[moe](A)p.[moe](T)[sp].[moe](A)}$$$$ (last 3' nucleoside missing)”: 4 score 0-7.

Turning to “RNA1{[moe](A)[sp].[moe](T)p.[moe](T)p.[moe](G)p.[moe](G)p.d(T)[sp].d([m5C])[sp].d(A)[sp].d(T)[sp].d([m5C])[sp].d(T)[sp].d([m5C])[sp].d(G)[sp].d(G)[sp].d(G)[sp].[moe](T)p.[moe](A)p.[moe](T)[sp].[moe](A)}$$$$ (last 3' nucleoside missing)”, the 3 h FOB score stood at 2.8 score 0-7. The substance “RNA1{[moe](A)[sp].[moe](T)p.[moe](T)p.[moe](G)p.[moe](T)p.d([m5C])[sp].d([m5C])[sp].d(T)[sp].d([m5C])[sp].d([m5C])[sp].d(T)[sp].d(G)[sp].d(G)[sp].d(T)[sp].d(A)[sp].[moe](A)p.[moe]([m5C])p.[moe]([m5C])[sp].[moe](A)}$$$$ (last 3' nucleoside missing)” gave a 3 h FOB score of 1.2 score 0-7. On to “RNA1{[moe](A)[sp].[moe](T)p.[moe](T)p.[moe](G)p.d(G)[sp].d(T)[sp].d([m5C])[sp].d(A)[sp].d(T)[sp].d([m5C])[sp].d(T)[sp].d([m5C])[sp].d(G)[sp].d(G)[sp].[moe](G)p.[moe](T)p.[moe](A)p.[moe](T)[sp].[moe](A)}$$$$ (last 3' nucleoside missing)”, for which the 3 h FOB score is 4 score 0-7. Next, “RNA1{[moe](A)[sp].[moe](T)p.[moe](T)p.[moe]([m5C])p.[moe](A)p.d(G)[sp].d(A)[sp].d(T)[sp].d(A)[sp].d([m5C])[sp].d(T)[sp].d(A)[sp].d(G)[sp].d(T)[sp].d(T)[sp].[moe](T)p.[moe](A)p.[moe]([m5C])[sp].[moe]([m5C])}$$$$ (last 3' nucleoside missing)”: 2.8 score 0-7; “RNA1{[moe](A)[sp].[moe](T)p.[moe](T)p.[moe]([m5C])p.[moe](A)p.d(G)[sp].d([m5C])[sp].d(A)[sp].d([m5C])[sp].d(T)[sp].d(T)[sp].d(A)[sp].d(G)[sp].d(G)[sp].d(T)[sp].[moe](A)p.[moe](G)p.[moe](T)[sp].[moe](T)}$$$$ (last 3' nucleoside missing)”: 3.3 score 0-7. Next, “RNA1{[moe](A)[sp].[moe](T)p.[moe]([m5C])p.[moe](A)p.[moe](G)p.d(G)[sp].d(G)[sp].d([m5C])[sp].d(A)[sp].d([m5C])[sp].d(A)[sp].d(T)[sp].d(G)[sp].d(G)[sp].d(A)[sp].[moe](G)p.[moe](T)p.[moe](T)[sp].[moe](G)}$$$$ (last 3' nucleoside missing)”: 6.8 score 0-7. Next, “RNA1{[moe](A)[sp].[moe](T)p.[moe]([m5C])p.[moe](A)p.[moe](T)p.d(G)[sp].d(T)[sp].d(G)[sp].d([m5C])[sp].d(A)[sp].d(T)[sp].d(A)[sp].d([m5C])[sp].d([m5C])[sp].d([m5C])[sp].[moe](A)p.[moe](G)p.[moe](G)[sp].[moe](G)}$$$$ (last 3' nucleoside missing)”: 0 score 0-7; “RNA1{[moe](A)[sp].[moe](T)p.[moe]([m5C])p.[moe](A)p.[moe]([m5C])p.d(A)[sp].d(T)[sp].d(T)[sp].d(A)[sp].d([m5C])[sp].d([m5C])[sp].d([m5C])[sp].d(A)[sp].d(T)[sp].d([m5C])[sp].[moe]([m5C])p.[moe](G)p.[moe](T)[sp].[moe](T)}$$$$ (last 3' nucleoside missing)”: 0 score 0-7; “RNA1{[moe](A)[sp].[moe](T)p.[moe]([m5C])p.[moe](T)p.[moe](G)p.d(G)[sp].d(T)[sp].d([m5C])[sp].d(T)[sp].d(T)[sp].d(G)[sp].d(G)[sp].d(G)[sp].d(A)[sp].d(T)[sp].[moe](T)p.[moe](A)p.[moe](T)[sp].[moe](A)}$$$$ (last 3' nucleoside missing)”: 4.8 score 0-7. The substance “RNA1{[moe](A)[sp].[moe](T)p.[moe]([m5C])p.[moe](T)p.[moe]([m5C])p.d(G)[sp].d(G)[sp].d(G)[sp].d(T)[sp].d(A)[sp].d(T)[sp].d(A)[sp].d(T)[sp].d(A)[sp].d(A)[sp].[moe](A)p.[moe](T)p.[moe](T)[sp].[moe](A)}$$$$ (last 3' nucleoside missing)” showed a 3 h FOB score of 0 score 0-7. The result for “RNA1{[moe](A)[sp].[moe]([m5C])[sp].[moe](A)[sp].[moe](T)[sp].[moe](T)[sp].d(T)[sp].d([m5C])[sp].d(T)[sp].d(T)[sp].d(A)[sp].d(G)[sp].d(T)[sp].d(T)[sp].d(G)[sp].d(A)[sp].[moe](A)[sp].[moe]([m5C])[sp].[moe](A)[sp].[moe](G)}$$$$ (last 3' nucleoside missing)” reads 6.5 score 0-7; that for “RNA1{[moe](A)[sp].[moe]([m5C])p.[moe](A)p.[moe](T)p.[moe](A)p.d([m5C])[sp].d(T)[sp].d(T)[sp].d(G)[sp].d(G)[sp].d(T)[sp].d(T)[sp].d(G)[sp].d([m5C])[sp].d(A)[sp].[moe](G)p.[moe](A)p.[moe]([m5C])[sp].[moe](G)}$$$$ (last 3' nucleoside missing)”, 4.8 score 0-7; that for “RNA1{[moe](A)[sp].[moe]([m5C])p.[moe](A)p.[moe]([m5C])p.[moe](T)p.d(T)[sp].d(T)[sp].d([m5C])[sp].d(A)[sp].d(T)[sp].d([m5C])[sp].d(A)[sp].d(G)[sp].d(T)[sp].d(T)[sp].[moe](A)p.[moe](G)p.[moe](T)[sp].[moe]([m5C])}$$$$ (last 3' nucleoside missing)”, 1 score 0-7. The substance “RNA1{[moe](A)[sp].[moe]([m5C])p.[moe](G)p.[moe]([m5C])[sp].d(A)[sp].d(A)[sp].d(T)[sp].d(G)[sp].d(T)[sp].d(A)[sp].d(T)[sp].d([m5C])[sp].[moe](A)p.[moe](G)p.[moe](G)p.[moe]([m5C])[sp].[moe](A)}$$$$ (last 3' nucleoside missing)” gave a 3 h FOB score of 1 score 0-7. Next, “RNA1{[moe](A)[sp].[moe]([m5C])p.[moe](G)p.[moe]([m5C])p.[moe](A)[sp].d(A)[sp].d(T)[sp].d(G)[sp].d(T)[sp].d(A)[sp].d(T)[sp].d([m5C])[sp].d(A)[sp].[moe](G)p.[moe](G)p.[moe]([m5C])[sp].[moe](A)}$$$$ (last 3' nucleoside missing)”: 2.3 score 0-7. For the substance “RNA1{[moe](A)[sp].[moe]([m5C])p.[moe](G)p.[moe]([m5C])p.[moe](A)p.[moe](A)[sp].d(T)[sp].d(G)[sp].d(T)[sp].d(A)[sp].d(T)[sp].d([m5C])[sp].d(A)[sp].d(G)[sp].[moe](G)p.[moe]([m5C])[sp].[moe](A)}$$$$ (last 3' nucleoside missing)”, the 3 h FOB score was 0 score 0-7. The result for “RNA1{[moe](A)[sp].[moe]([m5C])p.[moe](T)p.[moe](A)p.[moe](T)p.d([m5C])[sp].d([m5C])[sp].d(T)[sp].d(G)[sp].d([m5C])[sp].d(A)[sp].d(T)[sp].d([m5C])[sp].d([m5C])[sp].d(G)[sp].[moe](A)p.[moe](G)p.[moe](G)[sp].[moe]([m5C])}$$$$ (last 3' nucleoside missing)” reads 1 score 0-7; that for “RNA1{[moe](A)[sp].[moe]([m5C])p.[moe](T)p.[moe](G)p.[moe](G)p.d([m5C])[sp].d(A)[sp].d(T)[sp].d(A)[sp].d(T)[sp].d(T)[sp].d([m5C])[sp].d([m5C])[sp].d(G)[sp].d(A)[sp].[moe](T)p.[moe](T)p.[moe](A)[sp].[moe](T)}$$$$ (last 3' nucleoside missing)”, 3 score 0-7.
